Common to all, as to type: functional
For assay [1], the system named is Mus musculus. Nature of the assay: Antileukemic activity of compound against the P-388 lymphocytic leukemic BDF1 male mice at 15(mg/kg)/day, administered intraperitoneally; 9/9.66 (Treated/control).
The test system of assay [2] is Mus musculus. The assay can be described thus: In vivo antileukemic activity against P-388 lymphocytic leukemia in BDF1 male mice at 4(mg/kg)/day intraperitoneal dose expressed as T/C.
In assay [3] the test system is Mus musculus. Nature of the assay: In vivo antileukemic activity against P-388 lymphocytic leukemia in BDF1 male mice at 15(mg/kg)/day intraperitoneal dose expressed as T/C.
For assay [4], the system named is Mus musculus. The assay can be described thus: Antileukemic activity of compound against the P-388 lymphocytic leukemic BDF1 male mice at 2(mg/kg)/day, administered intraperitoneally; 11.5/9.66 (Treated/control).
Assay [5] deals with Mus musculus. Nature of the assay: Antileukemic activity of compound against the P-388 lymphocytic leukemic BDF1 male mice at 30(mg/kg)/day, administered intraperitoneally; 7/9.66 (Treated/control).
The subject of assay [6] is Mus musculus. The assay can be described thus: Antileukemic activity of compound against the P-388 lymphocytic leukemic BDF1 male mice at 4(mg/kg)/day, administered intraperitoneally; 16.5/9.66 (Treated/control).
In assay [7] the test system is Mus musculus. Nature of the assay: In vivo antileukemic activity against P-388 lymphocytic leukemia in BDF1 male mice at 60 mg/kg/day intraperitoneal dose expressed as T/C.
In assay [8] the test system is Mus musculus. Nature of the assay: In vivo antileukemic activity against P-388 lymphocytic leukemia in BDF1 male mice at 30(mg/kg)/day intraperitoneal dose expressed as T/C.
Assay [9] has as its system Mus musculus. The assay can be described thus: Antileukemic activity of compound against the P-388 lymphocytic leukemic BDF1 male mice at 8(mg/kg)/day, administered intraperitoneally; 18.8/9.66 (Treated/control).
In assay [10] the test system is Mus musculus. The assay can be described thus: Antileukemic activity of compound against the P-388 lymphocytic leukemic BDF1 male mice at 60 mg/kg/day, administered intraperitoneally; 4.7/9.66 (Treated/control). As to conditions: route intraperitoneal.
Assay [11] concerns Mus musculus. Nature of the assay: In vivo antileukemic activity against P-388 lymphocytic leukemia in BDF1 male mice at 8(mg/kg)/day intraperitoneal dose expressed as T/C.
In assay [12] the test system is Mus musculus. Nature of the assay: In vivo antileukemic activity against P-388 lymphocytic leukemia in BDF1 male mice at 2(mg/kg)/day intraperitoneal dose expressed as T/C.
Assay [13] relates to Mus musculus. Nature of the assay: Antileukemic activity of compound against the P-388 lymphocytic leukemic BDF1 male mice at 8(mg/kg)/day, administered intraperitoneally; 10.5/9.66 (Treated/control).
In assay [14] the test system is Mus musculus. The assay can be described thus: Antileukemic activity of compound against the P-388 lymphocytic leukemic BDF1 male mice at 50(mg/kg)/day, administered intraperitoneally; 13.4/9.66 (Treated/control).
For assay [15], the system named is Mus musculus. Nature of the assay: Antileukemic activity of compound against the P-388 lymphocytic leukemic BDF1 male mice at 12.5 mg/kg/day, administered intraperitoneally; 16.0/9.66 (Treated/control). As to conditions: route intraperitoneal.
The subject of assay [16] is Mus musculus. The assay can be described thus: Antileukemic activity of compound against the P-388 lymphocytic leukemic BDF1 male mice at 8(mg/kg)/day, administered intraperitoneally; 13.7/9.66 (Treated/control).
Assay [17] deals with Mus musculus. Nature of the assay: Antileukemic activity of compound against the P-388 lymphocytic leukemic BDF1 male mice at 2(mg/kg)/day, administered intraperitoneally; 11.2/9.66 (Treated/control).
Assay [18] has as its system Mus musculus. The assay can be described thus: In vivo antileukemic activity against P-388 lymphocytic leukemia in BDF1 male mice at 50(mg/kg)/day intraperitoneal dose expressed as T/C.
For assay [19], the system named is Mus musculus. The assay can be described thus: Antileukemic activity of compound against the P-388 lymphocytic leukemic BDF1 male mice at 4(mg/kg)/day, administered intraperitoneally; 10.6/9.66 (Treated/control).
The test system of assay [20] is Mus musculus. The assay can be described thus: Antileukemic activity of compound against the P-388 lymphocytic leukemic BDF1 male mice at 25(mg/kg)/day, administered intraperitoneally; 17.2/9.66 (Treated/control).
Assay [21] relates to Mus musculus. Nature of the assay: In vivo antileukemic activity against P-388 lymphocytic leukemia in BDF1 male mice at 12.5 mg/kg/day intraperitoneal dose expressed as T/C.
For assay [22], the system named is Mus musculus. Nature of the assay: In vivo antileukemic activity against P-388 lymphocytic leukemia in BDF1 male mice at 25(mg/kg)/day intraperitoneal dose expressed as T/C.
In assay [23] the test system is Mus musculus. Nature of the assay: Antileukemic activity of compound against the P-388 lymphocytic leukemic BDF1 male mice at 8(mg/kg)/day, administered intraperitoneally; 16.7/9.66 (Treated/control).
Assay [24] has as its system Mus musculus. The assay can be described thus: Antileukemic activity of compound against the P-388 lymphocytic leukemic BDF1 male mice at 4(mg/kg)/day, administered intraperitoneally; 16.2/9.66 (Treated/control).
Assay [25] relates to Mus musculus. Nature of the assay: Antileukemic activity of compound against the P-388 lymphocytic leukemic BDF1 male mice at 60 mg/kg/day, administered intraperitoneally; 3.8/9.66 (Treated/control). As to conditions: route intraperitoneal.
The test system of assay [26] is Mus musculus. The assay can be described thus: Antileukemic activity of compound against the P-388 lymphocytic leukemic BDF1 male mice at 15(mg/kg)/day, administered intraperitoneally; 9.8/9.66 (Treated/control).
The test system of assay [27] is Mus musculus. Nature of the assay: Antileukemic activity of compound against the P-388 lymphocytic leukemic BDF1 male mice at 2(mg/kg)/day, administered intraperitoneally; 14.5/9.66 (Treated/control).
The test system of assay [28] is Mus musculus. The assay can be described thus: Antileukemic activity of compound against the P-388 lymphocytic leukemic BDF1 male mice at 30(mg/kg)/day, administered intraperitoneally; 6.7/9.66 (Treated/control).
Assay [29] relates to Mus musculus. The assay can be described thus: Antileukemic activity of compound against the P-388 lymphocytic leukemic BDF1 male mice at 15(mg/kg)/day, administered intraperitoneally; 10.8/9.66 (Treated/control).
Assay [30] relates to Mus musculus. The assay can be described thus: Antileukemic activity of compound against the P-388 lymphocytic leukemic BDF1 male mice at 12(mg/kg)/day, administered intraperitoneally; 10.8/9.66 (Treated/control).
The subject of assay [31] is Mus musculus. The assay can be described thus: Antileukemic activity of compound against the P-388 lymphocytic leukemic BDF1 male mice at 8(mg/kg)/day, administered intraperitoneally; 11.9/9.66 (Treated/control).
The subject of assay [32] is Mus musculus. Nature of the assay: In vivo antileukemic activity against P-388 lymphocytic leukemia in BDF1 male mice at 12(mg/kg)/day intraperitoneal dose expressed as T/C.
Assay [33] deals with Mus musculus. Nature of the assay: Antileukemic activity of compound against the P-388 lymphocytic leukemic BDF1 male mice at 25(mg/kg)/day, administered intraperitoneally; 18.0/9.66 (Treated/control).

Structures are written as SMILES.

`C=C1C(=O)O[C@@H]2C[C@@H](C)[C@@H]3C=CC(=O)[C@@]3(C)[C@@H](OC(=O)CCCC(=O)O[C@H]3[C@@H]4C(=C)C(=O)O[C@@H]4C[C@@H](C)[C@@H]4C=CC(=O)[C@]43C)[C@H]12`: the “Average survival (days)” value in the assay on Mus musculus [1] was 9; in the assay on Mus musculus [4], 11.2; in the assay with Mus musculus [5], 7; in the assay on Mus musculus [6] it was 16.5; in the assay on Mus musculus [9] it was 18.8; in the assay with Mus musculus [10], 4.7. Besides, the T/C (commonly the result in the treated group divided by that in the control group, in per cent) came to 171% with Mus musculus [2]; 93% in the assay with Mus musculus [3]; 48% in the assay on Mus musculus [7]; 72% in the assay with Mus musculus [8]; 195% in the assay with Mus musculus [11]; 116% in the assay with Mus musculus [12].

The compound `CC1C(=O)O[C@@H]2C[C@@H](C)[C@@H]3CCC(=O)[C@@]3(C)[C@@H](O)[C@H]12` (stereo partly specified) registered a T/C with Mus musculus [7] of 109%. Besides, in the assay on Mus musculus [13], the “Average survival (days)” value turned out to be 10.5.

`C=C1C(=O)O[C@@H]2C[C@@H](C)[C@@H]3C=CC(=O)[C@@]3(C)[C@@H](OC(=O)CCC(=O)O[C@H]3[C@@H]4C(=C)C(=O)O[C@@H]4C[C@@H](C)[C@@H]4C=CC(=O)[C@]43C)[C@H]12`: the “Average survival (days)” value was determined as 13.4 in the assay on Mus musculus [14]; 16 in the assay on Mus musculus [15]; 13.7 in the assay with Mus musculus [16]; 11.2 with Mus musculus [17]; 10.6 with Mus musculus [19]; 17.2 in the assay with Mus musculus [20]. The T/C in the assay on Mus musculus [2] turned out to be 110%; with Mus musculus [18], 140%; with Mus musculus [11], 168%; with Mus musculus [21] it was 166%; in the assay on Mus musculus [12], 116%; in the assay on Mus musculus [22], 178%.

Consider `C=C1C(=O)O[C@@H]2C[C@@H](C)[C@@H]3C=CC(=O)[C@@]3(C)[C@@H](OC(=O)CCCCC(=O)O[C@H]3[C@@H]4C(=C)C(=O)O[C@@H]4C[C@@H](C)[C@@H]4C=CC(=O)[C@]43C)[C@H]12`, for which the “Average survival (days)” value is on record as 16.7 in the assay with Mus musculus [23]; 16.2 in the assay on Mus musculus [24]; 3.8 with Mus musculus [25]; 9.8 in the assay on Mus musculus [26]; 14.5 in the assay with Mus musculus [27]; 6.7 in the assay with Mus musculus [28]. The T/C in the assay with Mus musculus [2] was 167%; in the assay on Mus musculus [3], 101%; in the assay on Mus musculus [7], 40%; in the assay with Mus musculus [8], 69%; with Mus musculus [11], 173%; with Mus musculus [12] it was 150%.

For the compound `C[C@@H]1C[C@H]2OC(=O)[C@@H](C)[C@H]2[C@H](OC(=O)CC(=O)O[C@H]2[C@@H]3[C@H](C)C(=O)O[C@@H]3C[C@@H](C)[C@@H]3C=CC(=O)[C@]32C)[C@]2(C)C(=O)C=C[C@@H]12`, the figures for the “Average survival (days)” value in the assay on Mus musculus [29], with Mus musculus [30] and in the assay on Mus musculus [31] were 10.8, 10.8 and 11.9, respectively. The T/C was determined as 112% in the assay with Mus musculus [3], 124% in the assay with Mus musculus [11] and 112% with Mus musculus [32].

Regarding `O=c1[nH]cc(F)c(=O)[nH]1` [FLUOROURACIL], the “Average survival (days)” value in the assay on Mus musculus [33] was 18. In addition, the T/C in the assay on Mus musculus [7] came to 186%.

For the origin of these results see ChEMBL document CHEMBL1121678, “Antitumor agents. 44. Bis(helenalinyl) esters and related derivatives as novel potent antileukemic agents” (1981).
